Patent US7981903B2, “2-[2-{phenylamino}-1H-pyrrolo[2,3-D]pyrimidin-4-yl)amino] benzamide derivatives as IGF-1R inhibitors for the treatment of cancer” (GlaxoSmithKline LLC, priority 2007, dated 2011)
Where “and” joins values, the source holds several entries; their conditions need not be identical. Equal values may be shown once.

Key:
[1] = molecular target: T1, NIH-3T3 cells overexpressing human IGF-1R (Homo sapiens, UniProt P08069); assay: IGF-1R cellular autophosphorylation (DELFIA); assay type: cell-based
T1 construct: expressed in transfected cells; host or cells: NIH-3T3 (mouse fibroblasts)
T1 sequence (P08069 31-1367): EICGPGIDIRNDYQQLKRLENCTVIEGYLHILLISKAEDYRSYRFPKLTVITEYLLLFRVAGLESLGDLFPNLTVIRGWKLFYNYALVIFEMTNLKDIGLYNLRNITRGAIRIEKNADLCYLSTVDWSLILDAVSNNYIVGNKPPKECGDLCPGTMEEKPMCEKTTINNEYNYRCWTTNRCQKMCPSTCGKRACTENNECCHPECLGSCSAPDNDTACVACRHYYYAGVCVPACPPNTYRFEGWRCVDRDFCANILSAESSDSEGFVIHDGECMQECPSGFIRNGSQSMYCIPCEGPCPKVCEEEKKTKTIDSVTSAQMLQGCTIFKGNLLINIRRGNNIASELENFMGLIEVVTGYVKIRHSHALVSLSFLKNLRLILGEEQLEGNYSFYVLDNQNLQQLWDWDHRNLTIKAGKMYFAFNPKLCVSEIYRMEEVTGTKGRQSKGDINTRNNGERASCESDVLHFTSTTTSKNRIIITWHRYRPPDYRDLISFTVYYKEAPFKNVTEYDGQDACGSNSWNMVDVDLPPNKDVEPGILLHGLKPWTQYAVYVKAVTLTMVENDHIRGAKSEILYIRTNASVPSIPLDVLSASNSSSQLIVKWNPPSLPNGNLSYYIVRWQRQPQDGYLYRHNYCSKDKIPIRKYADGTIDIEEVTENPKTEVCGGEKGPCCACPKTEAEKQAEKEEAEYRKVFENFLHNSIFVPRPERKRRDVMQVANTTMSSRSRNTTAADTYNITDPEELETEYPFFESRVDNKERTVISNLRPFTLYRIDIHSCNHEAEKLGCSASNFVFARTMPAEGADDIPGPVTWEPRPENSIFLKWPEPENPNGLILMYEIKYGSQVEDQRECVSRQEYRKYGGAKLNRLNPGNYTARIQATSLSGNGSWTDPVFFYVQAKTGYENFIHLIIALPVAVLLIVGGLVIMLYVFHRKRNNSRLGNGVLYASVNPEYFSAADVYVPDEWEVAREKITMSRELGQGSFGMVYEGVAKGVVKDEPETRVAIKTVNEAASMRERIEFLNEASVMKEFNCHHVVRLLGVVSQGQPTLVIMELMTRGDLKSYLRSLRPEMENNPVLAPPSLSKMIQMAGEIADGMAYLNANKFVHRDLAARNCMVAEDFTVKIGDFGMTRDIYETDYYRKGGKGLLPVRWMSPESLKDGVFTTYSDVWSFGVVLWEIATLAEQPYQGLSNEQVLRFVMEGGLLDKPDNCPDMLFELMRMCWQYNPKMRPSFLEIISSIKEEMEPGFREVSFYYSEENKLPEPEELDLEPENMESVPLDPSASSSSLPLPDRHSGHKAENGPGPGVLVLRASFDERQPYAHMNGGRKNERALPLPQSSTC
Summary of the method: (§1)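 Receptor autophosphorylation measured by DELFIA, capturing IGF-1R or IRβ and detecting with europium anti-pTyr, reported as percent of IGF-1- or insulin-stimulated signal. Compounds (30 uM to 1.5 nM) added 2 h before ligand, then 15 min stimulation (IGF-1 30 ng/ml or insulin 3 ug/ml).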

NCI-H929 = assay: Inhibition of cell proliferation (CellTiter-Glo or InCell analyzer), NCI-H929; assay type: cell-based; settings: Homo sapiens, 72 h / 3 days, values given as IC50 category
Protocol: (§2) Cell proliferation was measured by either CellTiter-Glo (measures cellular ATP level as a surrogate for total cell number) or by InCell analyzer (counts number of nuclei as a measure of cell number).
(§3) For CellTiter-Glo assay, exponentially growing cell lines of different tumor origins, cultured in appropriate media containing 10% fetal bovine serum at 37° C. in a 5% CO2 incubator, were plated at low density (less than 2000cells/well) in 96-well plates. Twenty four hours post-plating, cells were treated with different concentrations of test compounds ranging from 30 uM to 1.5 nM. Several wells were left untreated as a control. Seventy two hours post-treatment, cell numbers were determined using 50-100 ul per well of CellTiter-Glo (Promega #G7573). Plates were incubated at 37° C. for 30 minutes and the chemiluminescent signal was read on the Victor V or Envison 2100 reader.
(§4) For InCell Analyser assay, various cell lines of different tumor origins were grown to 70-80% confluency in appropriate culture media containing 10% fetal bovine serum at 37° C. in a 5% CO2 incubator. On day −1, cells were seeded at 2 densities in 384-well plates and incubated at 37° C. overnight. Stock compound plates were prepared in advance which contained dimethyl sulfoxide (DMSO) alone and a 9-point half-log decreasing dose range of the compound in DMSO. The compound plates were stored at −80° C. and each plate was only thawed once and used. On day 0, the main assay plates received compound or DMSO via a sonic delivery system (ECHO). The highest final concentration of compound of the dose range in the culture plates was 10 uM. These plates were cultured at 37° C. for 3 days. […] On day 3, the compound treated plates were stained and fixed to measure proliferation, apoptosis, and mitotic index using an InCelL1000 analyser. A nuclear stain was used to identify cells in the wells. By counting the number of nuclei, the proliferation index of compound treated groups were calculated as a percentage relative to the DMSO control, which was set to 100%. The IC50 values were calculated using model 205 in ExcelFit.
(§5) IC50 (nM) values for compounds of select examples were categorized by relative inhibition of cell proliferation.

[2] = molecular target: T2, NIH-3T3 cells overexpressing human IR (Homo sapiens, UniProt P06213); assay: IR cellular autophosphorylation (DELFIA); assay type: cell-based; settings: 2 h compound, insulin 3 ug/ml for 15 minutes, IC50 category
T2 construct: expressed in transfected cells; host or cells: NIH-3T3 (mouse fibroblasts)
T2 sequence (P06213 28-1382): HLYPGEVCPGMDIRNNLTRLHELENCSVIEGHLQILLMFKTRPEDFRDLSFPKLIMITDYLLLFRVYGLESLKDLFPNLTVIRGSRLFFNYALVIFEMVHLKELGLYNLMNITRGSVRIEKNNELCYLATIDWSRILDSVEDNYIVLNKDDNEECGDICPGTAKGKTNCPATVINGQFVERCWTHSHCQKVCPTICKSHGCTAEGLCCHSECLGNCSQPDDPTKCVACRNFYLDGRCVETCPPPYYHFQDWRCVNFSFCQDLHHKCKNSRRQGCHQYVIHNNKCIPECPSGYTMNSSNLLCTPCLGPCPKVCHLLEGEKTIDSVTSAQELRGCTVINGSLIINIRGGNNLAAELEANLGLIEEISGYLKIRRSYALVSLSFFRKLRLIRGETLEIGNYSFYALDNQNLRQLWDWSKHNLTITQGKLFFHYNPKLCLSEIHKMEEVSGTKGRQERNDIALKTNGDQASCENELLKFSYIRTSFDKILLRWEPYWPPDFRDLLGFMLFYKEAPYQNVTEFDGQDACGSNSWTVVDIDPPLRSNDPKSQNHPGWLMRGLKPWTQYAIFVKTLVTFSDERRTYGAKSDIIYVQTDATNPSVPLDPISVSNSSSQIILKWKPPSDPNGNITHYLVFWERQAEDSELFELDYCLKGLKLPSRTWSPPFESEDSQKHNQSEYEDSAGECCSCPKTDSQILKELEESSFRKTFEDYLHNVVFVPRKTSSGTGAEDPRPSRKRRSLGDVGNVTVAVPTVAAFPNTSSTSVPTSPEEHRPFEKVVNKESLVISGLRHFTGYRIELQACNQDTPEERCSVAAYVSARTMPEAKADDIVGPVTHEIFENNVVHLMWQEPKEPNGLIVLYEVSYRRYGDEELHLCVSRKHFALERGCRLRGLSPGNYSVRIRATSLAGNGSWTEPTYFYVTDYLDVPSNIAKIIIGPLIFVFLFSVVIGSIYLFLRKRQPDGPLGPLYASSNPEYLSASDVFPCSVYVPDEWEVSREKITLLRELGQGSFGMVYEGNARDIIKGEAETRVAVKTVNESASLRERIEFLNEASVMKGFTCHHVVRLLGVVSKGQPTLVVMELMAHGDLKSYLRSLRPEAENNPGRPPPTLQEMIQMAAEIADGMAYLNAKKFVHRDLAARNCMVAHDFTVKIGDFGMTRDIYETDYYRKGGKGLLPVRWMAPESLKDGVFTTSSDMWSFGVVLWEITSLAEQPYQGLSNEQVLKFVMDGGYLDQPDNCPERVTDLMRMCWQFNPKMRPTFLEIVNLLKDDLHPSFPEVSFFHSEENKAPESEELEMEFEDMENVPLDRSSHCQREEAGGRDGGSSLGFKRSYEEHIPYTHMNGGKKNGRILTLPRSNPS
Summary of the method: as §1

human IGF1R (hIGF1R) = molecular target: T3, human IGF1R (hIGF1R) (Homo sapiens, UniProt P08069); assay: TR-FRET kinase assay of purified hIGF1R; assay type: biochemical; settings: activated hIGF1R 0.5 nM, 10 μM ATP, values given as pIC50 category, read-out: IGF-1R pIC50 (converted)
T3 construct: containing amino acid residues 957-1367 of human IGF1R; made in house; host or cells: Sf9 cells (baculovirus)
T3 sequence (P08069 957-1367): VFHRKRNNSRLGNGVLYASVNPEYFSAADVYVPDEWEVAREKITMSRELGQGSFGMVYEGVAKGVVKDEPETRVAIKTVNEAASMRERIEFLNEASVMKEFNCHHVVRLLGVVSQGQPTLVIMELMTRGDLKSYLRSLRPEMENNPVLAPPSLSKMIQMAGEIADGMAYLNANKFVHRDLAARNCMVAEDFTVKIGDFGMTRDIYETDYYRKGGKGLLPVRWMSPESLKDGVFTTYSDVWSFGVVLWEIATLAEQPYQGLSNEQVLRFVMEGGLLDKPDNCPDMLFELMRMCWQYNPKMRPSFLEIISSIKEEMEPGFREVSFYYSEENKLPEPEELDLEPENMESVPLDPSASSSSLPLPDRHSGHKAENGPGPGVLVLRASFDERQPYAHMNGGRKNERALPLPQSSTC

human IR (hIR) = molecular target: T4, human IR (hIR) (Homo sapiens, UniProt P06213); assay: TR-FRET kinase assay of purified hIR; assay type: biochemical; settings: activated hIR 0.5 nM, 10 μM ATP, values given as pIC50 category
T4 construct: containing amino acid residues 979-1382 of human IR; made in house; host or cells: Sf9 cells (baculovirus), same process as hIGF1R
T4 sequence (P06213 979-1382): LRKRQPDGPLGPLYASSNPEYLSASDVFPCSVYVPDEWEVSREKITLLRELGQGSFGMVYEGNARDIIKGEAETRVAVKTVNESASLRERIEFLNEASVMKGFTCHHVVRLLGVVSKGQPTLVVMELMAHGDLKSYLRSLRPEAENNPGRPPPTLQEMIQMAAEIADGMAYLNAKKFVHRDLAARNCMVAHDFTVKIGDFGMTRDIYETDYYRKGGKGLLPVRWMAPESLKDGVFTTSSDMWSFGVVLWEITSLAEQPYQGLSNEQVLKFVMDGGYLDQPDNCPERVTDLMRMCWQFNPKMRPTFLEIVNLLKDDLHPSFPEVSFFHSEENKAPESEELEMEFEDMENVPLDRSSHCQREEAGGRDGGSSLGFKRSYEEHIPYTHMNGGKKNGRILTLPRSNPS

Colo205 = assay: Inhibition of cell proliferation (CellTiter-Glo or InCell analyzer), Colo205; assay type: cell-based; settings: Homo sapiens, COLO 205, 72 h / 3 days, values given as IC50 category
Protocol: as §2, §3, §4, §5

ALK = ALK (Homo sapiens, UniProt Q9UM73); assay: ALK enzyme assay (HTRF); assay type: biochemical; settings: 0.25 nM ALK, 15.0 μM ATP, values given as pIC50 category
ALK, sequence (Q9UM73 19-1620): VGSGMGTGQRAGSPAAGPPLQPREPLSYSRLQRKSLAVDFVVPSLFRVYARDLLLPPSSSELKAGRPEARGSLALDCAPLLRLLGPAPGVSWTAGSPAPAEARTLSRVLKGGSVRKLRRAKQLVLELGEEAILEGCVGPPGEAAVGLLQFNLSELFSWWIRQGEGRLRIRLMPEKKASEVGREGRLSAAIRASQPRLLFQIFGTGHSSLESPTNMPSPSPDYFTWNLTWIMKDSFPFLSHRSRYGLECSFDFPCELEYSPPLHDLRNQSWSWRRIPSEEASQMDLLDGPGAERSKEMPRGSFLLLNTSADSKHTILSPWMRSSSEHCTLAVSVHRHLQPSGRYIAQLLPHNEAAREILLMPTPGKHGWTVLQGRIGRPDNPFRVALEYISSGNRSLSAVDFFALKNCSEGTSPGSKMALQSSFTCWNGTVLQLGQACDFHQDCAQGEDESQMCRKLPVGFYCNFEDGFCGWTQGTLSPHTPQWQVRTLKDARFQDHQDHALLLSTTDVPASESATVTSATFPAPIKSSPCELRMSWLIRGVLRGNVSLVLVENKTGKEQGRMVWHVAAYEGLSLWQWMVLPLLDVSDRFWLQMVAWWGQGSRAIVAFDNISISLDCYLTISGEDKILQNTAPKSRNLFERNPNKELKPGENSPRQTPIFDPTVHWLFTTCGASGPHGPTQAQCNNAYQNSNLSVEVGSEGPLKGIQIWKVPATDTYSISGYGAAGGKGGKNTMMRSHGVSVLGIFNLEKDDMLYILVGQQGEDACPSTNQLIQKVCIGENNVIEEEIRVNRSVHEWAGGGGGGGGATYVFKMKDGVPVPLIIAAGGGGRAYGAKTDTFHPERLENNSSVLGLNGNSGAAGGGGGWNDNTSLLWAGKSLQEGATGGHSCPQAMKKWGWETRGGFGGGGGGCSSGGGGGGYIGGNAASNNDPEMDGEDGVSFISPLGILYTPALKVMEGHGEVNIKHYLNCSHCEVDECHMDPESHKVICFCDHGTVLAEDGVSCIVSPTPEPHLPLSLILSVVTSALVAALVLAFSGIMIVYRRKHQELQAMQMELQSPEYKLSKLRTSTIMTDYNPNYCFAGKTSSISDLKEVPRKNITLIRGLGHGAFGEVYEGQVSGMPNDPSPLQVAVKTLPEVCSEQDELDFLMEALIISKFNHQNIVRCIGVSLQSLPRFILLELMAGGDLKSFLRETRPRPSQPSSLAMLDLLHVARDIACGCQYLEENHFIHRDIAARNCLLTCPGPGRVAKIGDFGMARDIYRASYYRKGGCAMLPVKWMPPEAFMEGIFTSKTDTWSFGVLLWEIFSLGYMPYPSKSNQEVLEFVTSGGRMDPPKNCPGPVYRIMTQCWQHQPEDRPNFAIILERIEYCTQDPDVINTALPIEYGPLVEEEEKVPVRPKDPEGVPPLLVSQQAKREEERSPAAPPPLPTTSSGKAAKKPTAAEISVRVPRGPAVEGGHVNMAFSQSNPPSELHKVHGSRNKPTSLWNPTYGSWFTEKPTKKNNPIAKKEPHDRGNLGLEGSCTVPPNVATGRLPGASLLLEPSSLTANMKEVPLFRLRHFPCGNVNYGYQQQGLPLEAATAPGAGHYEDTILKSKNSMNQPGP
Summary of the method: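 Isolated ALK phosphorylates a biotinylated tyrosine peptide, 120 min at 20° C; anti-phosphotyrosine Eu-cryptate/streptavidin-XL665 HTRF read after 60 min with EDTA-containing detection mix.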

IC50 [1] | IC50 (NCI-H929) | IC50 [2] | IC50 (human IGF1R (hIGF1R)) | IC50 (human IR (hIR)) | IC50 (Colo205) | IC50 (ALK) | SMILES
100 to 500 nM | < 250 nM | 100 to 500 nM | 0.251 to 1 nM | 0.251 to 1 nM | < 250 nM |  | CCCN1CCC(c2ccc(Nc3nc(Nc4cccc(F)c4C(N)=O)c4cc[nH]c4n3)c(OC)c2)CC1 [Example 42, 2-fluoro-6-[(2-{[2-(methyloxy)-4-(1-propyl-4-piperidinyl)phenyl]amino}-1H-pyrrolo[2,3-d]pyrimidin-4-yl)amino]benzamide]
100 to 500 nM | < 250 nM | 100 to 500 nM | 1.26 to 3.98 nM | 1.26 to 3.98 nM | 250 to 1000 nM |  | COc1cc(N2CCC(N3CCCCC3)CC2)ccc1Nc1nc(Nc2cccc(F)c2C(N)=O)c2cc[nH]c2n1 [Example 45, 2-[(2-{[4-(1,4′-bipiperidin-1′-yl)-2-(methyloxy)phenyl]amino}-1H-pyrrolo[2,3-d]pyrimidin-4-yl)amino]-6-fluorobenzamide]
> 500 nM | 250 to 1000 nM | > 500 nM |  |  | > 1000 nM | 1.26 to 3.98 nM | COc1c(Nc2nc(Nc3cccc(F)c3C(N)=O)c3cc[nH]c3n2)ccc(N2CCN(C(C)C)CC2)c1C [Example 50, 2-fluoro-6-[(2-{[3-methyl-4-[4-(1-methylethyl)-1-piperazinyl]-2-(methyloxy)phenyl]amino}-1 H-pyrrolo[2,3-d]pyrimidin-4-yl)amino]benzamide]
 | 250 to 1000 nM |  | 5.01 to 200 nM | 5.01 to 158 nM | > 1000 nM | 1.26 to 3.98 nM | COc1cc2c(cc1Nc1nc(Nc3ccc(F)c(F)c3C(=O)NC(C)C)c3cc[nH]c3n1)N(C(=O)CN(C)C)CCC2 [Example 164, 6-[(2-{[1-(N,N-dimethylglycyl)-6-(methyloxy)-1,2,3,4-tetrahydro-7-quinolinyl]amino}-1H-pyrrolo[2,3-d]pyrimidin-4-yl)amino]-2,3-difluoro-N-(1-methylethyl)benzamide]
< 100 nM | < 250 nM | 100 to 500 nM |  |  | 250 to 1000 nM | 0.251 to 1 nM | COc1cc2c(cc1Nc1nc(Nc3cc(Cl)cc(F)c3C(N)=O)c3cc[nH]c3n1)N(C(=O)CN1CCCC1)CCC2 [Example 173, 4-chloro-2-fluoro-6-[(2-{[6-(methyloxy)-1-(1-pyrrolidinylacetyl)-1,2,3,4-tetrahydro-7-quinolinyl]amino}-1H-pyrrolo[2,3-d]pyrimidin-4-yl)amino]benzamide]
100 to 500 nM | 250 to 1000 nM | 100 to 500 nM | 0.251 to 1 nM | 0.251 to 1 nM | 250 to 1000 nM |  | CNC(=O)c1c(F)cc(Cl)cc1Nc1nc(Nc2cc3c(cc2OC)CCN3C(=O)CN2CCCC2)nc2[nH]ccc12 [Example 176, 4-chloro-2-fluoro-N-methyl-6-[(2-{[5-(methyloxy)-1-(1-pyrrolidinylacetyl)-2,3-dihydro-1H-indol-6-yl]amino}-1H-pyrrolo[2,3-d]pyrimidin-4-yl)amino]benzamide]
 | < 250 nM |  | 1.26 to 3.98 nM | 1.26 to 3.98 nM | < 250 nM | 0.251 to 1 nM | CNC(=O)c1c(F)cccc1Nc1nc(Nc2cc3c(cc2OC)CCN3C(=O)[C@H](C)N(C)C)nc2[nH]ccc12 [Example 194, 2-[(2-{[1-(N,N-dimethyl-L-alanyl)-5-(methyloxy)-2,3-dihydro-1H-indol-6-yl]amino}-1H-pyrrolo[2,3-d]pyrimidin-4-yl)amino]-6-fluoro-N-methylbenzamide]
 | 250 to 1000 nM |  | 1.26 to 3.98 nM | 1.26 to 3.98 nM | 250 to 1000 nM | 1.26 to 3.98 nM | CNC(=O)c1c(F)cccc1Nc1nc(Nc2cc3c(cc2OC)CCN3C(=O)[C@@H](C)N(C)C)nc2[nH]ccc12 [Example 195, 2-[(2-{[1-(N,N-dimethyl-D-alanyl)-5-(methyloxy)-2,3-dihydro-1H-indol-6-yl]amino}-1H-pyrrolo[2,3-d]pyrimidin-4-yl)amino]-6-fluoro-N-methylbenzamide]
> 500 nM | > 1000 nM | > 500 nM | 5.01 to 200 nM |  |  | 5.01 to 200 nM | COc1cc2ccn(CC(=O)N(C)C)c2cc1Nc1nc(Nc2cccc(F)c2C(N)=O)c2cc[nH]c2n1 [Example 196, 2-[(2-{[1-[2-(dimethylamino)-2-oxoethyl]-5-(methyloxy)-1H-indol-6-yl]amino}-1H-pyrrolo[2,3-d]pyrimidin-4-yl)amino]-6-fluorobenzamide]
> 500 nM | 250 to 1000 nM | > 500 nM | 5.01 to 200 nM | 5.01 to 158 nM | > 1000 nM |  | CNC(=O)c1c(F)cccc1Nc1nc(Nc2cc3c(cc2OC)CCCN3C(C)=O)nc2[nH]ccc12 [Example 215, 2-[(2-{[1-acetyl-6-(methyloxy)-1,2,3,4-tetrahydro-7-quinolinyl]amino}-1H-pyrrolo[2,3-d]pyrimidin-4-yl)amino]-6-fluoro-N-methylbenzamide]
 | < 250 nM |  | 0.251 to 1 nM | 0.251 to 1 nM | < 250 nM | 0.251 to 1 nM | COc1cc2c(cc1Nc1nc(Nc3cccc(F)c3C(N)=O)c3cc[nH]c3n1)N(C(=O)CN1CCCC1)CCC2(C)C [Example 223, 2-[(2-{[4,4-dimethyl-6-(methyloxy)-1-(1-pyrrolidinylacetyl)-1,2,3,4-tetrahydro-7-quinolinyl]amino}-1H-pyrrolo[2,3-d]pyrimidin-4-yl)amino]-6-fluorobenzamide]
 | < 250 nM |  | 0.251 to 1 nM | 0.251 to 1 nM | 250 to 1000 nM | 1.26 to 3.98 nM and 0.251 to 1 nM | CNC(=O)c1c(F)cccc1Nc1nc(Nc2cc3c(cc2OC)C(C)(C)CCN3C(=O)CN2CCCC2)nc2[nH]ccc12 [Example 224, 2-[(2-{[4,4-dimethyl-6-(methyloxy)-1-(1-pyrrolidinylacetyl)-1,2,3,4-tetrahydro-7-quinolinyl]amino}-1H-pyrrolo[2,3-d]pyrimidin-4-yl)amino]-6-fluoro-N-methylbenzamide]
 | < 250 nM |  | 0.251 to 1 nM | 0.251 to 1 nM | < 250 nM | 0.251 to 1 nM | COc1cc2c(cc1Nc1nc(Nc3cccc(F)c3C(N)=O)c3cc[nH]c3n1)N(C(=O)CN(C)C)CCC2(C)C [Example 225, 2-[(2-{[1-(N,N-dimethylglycyl)-4,4-dimethyl-6-(methyloxy)-1,2,3,4-tetrahydro-7-quinolinyl]amino}-1H-pyrrolo[2,3-d]pyrimidin-4-yl)amino]-6-fluorobenzamide]
 | 250 to 1000 nM |  | 1.26 to 3.98 nM | 0.251 to 1 nM | 250 to 1000 nM | 1.26 to 3.98 nM | COc1cc2c(cc1Nc1nc(Nc3cccc(F)c3C(N)=O)c3cc[nH]c3n1)NC(=O)CC2(C)C [Example 227, 2-[(2-{[4,4-dimethyl-6-(methyloxy)-2-oxo-1,2,3,4-tetrahydro-7-quinolinyl]amino}-1H-pyrrolo[2,3-d]pyrimidin-4-yl)amino]-6-fluorobenzamide]
 | 250 to 1000 nM |  | 1.26 to 3.98 nM | 1.26 to 3.98 nM | > 1000 nM | 1.26 to 3.98 nM | CNC(=O)c1c(F)cccc1Nc1nc(Nc2cc3c(cc2OC)C(C)(C)CC(=O)N3)nc2[nH]ccc12 [Example 228, 2-[(2-{[4,4-dimethyl-6-(methyloxy)-2-oxo-1,2,3,4-tetrahydro-7-quinolinyl]amino}-1H-pyrrolo[2,3-d]pyrimidin-4-yl)amino]-6-fluoro-N-methylbenzamide]
